Like-named read-outs stand apart in the source and are kept apart here.
Columns and labels:
[1] = biological target: T1, native human B1 receptors (Homo sapiens, UniProt P46663); assay: Calcium flux assay (FLIPR) with IMR-90 human fibroblasts for Bradykinin B1 receptor antagonist; type: cell-based; details: IMR-90 human foetal lung fibroblasts after induction with human IL-1; 0.1% BSA in assay buffer; read-out: hB1 IC50 IMR90
T1 construct: which express native human B1 receptors after induction with human IL-1; Coriell Institute; host or cells: IMR-90 human foetal lung fibroblasts, induced with human IL-1beta
T1 sequence (P46663 1-353): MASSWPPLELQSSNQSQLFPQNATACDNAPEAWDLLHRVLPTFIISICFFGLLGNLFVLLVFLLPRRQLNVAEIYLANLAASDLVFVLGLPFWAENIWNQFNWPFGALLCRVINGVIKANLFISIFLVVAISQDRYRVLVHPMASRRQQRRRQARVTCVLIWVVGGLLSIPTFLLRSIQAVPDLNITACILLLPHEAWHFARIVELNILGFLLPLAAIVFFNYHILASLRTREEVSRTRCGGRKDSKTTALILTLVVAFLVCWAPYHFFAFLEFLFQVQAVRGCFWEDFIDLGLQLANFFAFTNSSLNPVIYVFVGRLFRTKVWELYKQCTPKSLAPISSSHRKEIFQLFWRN
Experimental: Calcium Flux Assay (FLIPR) with Human Fibroblasts for Bradykinin B1 Receptor Antagonist (hB1 IMR-90 IC50)
The Calcium flux Assay was carried out utilising IMR-90 human foetal lung fibroblasts (American Type Culture Collection, Rockville, Md.; and Coriell Institute, Camden, N.J.), which express native human B1 receptors after induction with human IL-1[…].
The fibroblasts were cultured in complete growth media comprised of Dulbecco's modified Eagle's medium (DMEM; Sigma) containing 10% foetal bovine serum, 4 mM L-glutamine, and 1% nonessential amino acids. The cells were maintained in a humidified atmosphere with 5% CO2 at 37° C. and were sub-cultured at a ratio of 1:3, every other day.
For the assay, IMR-90 fibroblasts were harvested using TrypLE Express (GIBCO/Invitrogen) and seeded into 384-well plates (Corning Cellbinding Surface, Cat. 3683) at a density of 15000 cells/well. The following day, cells were treated with 0.35 ng/mL human IL-1[…] in 10% FBS/MEM for 3 h to up-regulate B1 receptors. Induced cells were loaded with fluorescent calcium indicator by incubation with 2.5 μM Fluo-4/AM (Invitrogen) at 37° C., 5% CO2 for 2 h in the presence of 2.5 mM probenecid in 1% FBS/MEM. Extracellular dye was removed by washing with assay buffer (2.5 mM probenecid and 0.1% BSA in 20 mM HEPES/HBSS without bicarbonate or phenol red, pH 7.5). Example compounds were assayed at 8 concentrations in triplicate. […] A peptide antagonist Lys-(Des-Arg-Leu)-Bradykinin (Bachem, Brackley) at 20 µM was used to determine the full inhibition as control. IC50 values were determined by the same way described for the FLIPR assay with recombinant cells.

human B1 receptor = biological target: T2, human B1 receptor (Homo sapiens, UniProt P46663); assay: Calcium flux assay (FLIPR) with recombinant CHO-K1 cells expressing human B1 receptor; type: cell-based
T2 construct: host or cells: CHO-K1
T2 sequence (P46663 1-353): T1 sequence (P46663 1-353)
In short: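 Indicator-loaded CHO-K1 cells expressing human B1 receptor were pre-incubated with compound (8 concentrations, triplicate, 1% DMSO) for 30 min at 28° C, in assay buffer with or without 0.1% BSA (hB1 IC50 vs free IC50). They were then challenged with Lys-(Des-Arg)-bradykinin from plates at 3.5×EC90, with peak FLIPR fluorescence read at 538 nm. IC50 was fitted from % response between DMSO and full block by 20 μM Lys-(Des-Arg-Leu)-bradykinin.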

[2] = absence of 0.1% BSA in assay buffer, read-out: hB1 free IC50
[3] = presence of 0.1% BSA in assay buffer, read-out: hB1 IC50

Compound | IC50 [1] | IC50 (human B1 receptor; [2]) | IC50 (human B1 receptor; [3])
COc1ccc(-c2ccc(NC(=O)C3CC3c3cccc(Cl)c3)cc2-c2nnn[nH]2)cc1OC (racemic) [Example 8, 2-(3-chlorophenyl)-N-[3′,4′-dimethoxy-2-(1H-tetrazol-5-yl)biphenyl-4-yl]cyclo-propanecarboxamide] | 8 nM | 12 nM | 8 nM
CCOc1ccc(-c2ccc(NC(=O)C3CC3c3ccc(Cl)cc3)cc2-c2nnn[nH]2)cn1 (racemic) [Example 17, 2-(4-Chlorophenyl)-N-[4-(6-ethoxypyridin-3-yl)-3-(1H-tetrazol-5-yl)phenyl]cyclopro-panecarboxamide] | 12 nM | 5 nM | 97 nM
CCOc1ccc(-c2ccc(NC(=O)C3CC3c3cccc(C)c3)cc2-c2nnn[nH]2)cn1 (racemic) [Example 18, N-[4-(6-Ethoxypyridin-3-yl)-3-(1H-tetrazol-5-yl)phenyl]-2-(3-methylphenyl)cyclopro-panecarboxamide] | 6 nM | 5 nM | 15 nM
CCOc1ccc(-c2ccc(NC(=O)C3(C)CC3c3ccccc3)cc2-c2nnn[nH]2)cn1 (racemic) [Example 21, [4-(6-Ethoxypyridin-3-yl)-3-(1H-tetrazol-5-yl)phenyl]-1-methyl-2-phenylcyclopropane-carboxamide] | 22 nM | 14 nM | 22 nM
Cc1cccc(C2CC2C(=O)Nc2cc(-c3nnn[nH]3)c(-c3ccc(C(F)(F)F)nc3)cc2O)c1 (racemic) [Example 52, N-{2-Hydroxy-5-(1H-tetrazol-5-yl)-4-[6-(trifluoromethyl)pyridin-3-yl]phenyl}-2-(3-methylphenyl)cyclopro-panecarboxamide] | 78 nM | 41 nM | 37 nM
CCOc1ccc(-c2c(F)cc(NC(=O)C3CC3c3ccc(Cl)cc3)cc2-c2nnn[nH]2)cn1 (racemic) [Example 61, 2-(4-chlorophenyl)-N-[4-(6-ethoxypyridin-3-yl)-3-fluoro-5-(1H-tetrazol-5-yl)phenyl]cyclopropane-carboxamide] | 44 nM | 12 nM | 
CCOc1ccc(-c2cc(C)c(NC(=O)C3CC3c3ccc(Cl)cc3)cc2-c2nnn[nH]2)cn1 (racemic) [Example 64, 2-(4-Chlorophenyl)-N-[4-(6-ethoxypyridin-3-yl)-2-methyl-5-(1H-tetrazol-5-yl)phenyl]cyclopropane-carboxamide] | 63 nM | 15 nM | 37 nM
Cc1cccc(C2CC2C(=O)Nc2ccc(-c3ccc(OC(C)C)nc3)c(-c3nnn[nH]3)c2)c1 (racemic) [Example 78, N-[4-(6-isopropoxypyridin-3-yl)-3-(1H-tetrazol-5-yl)phenyl]-2-(3-methylphenyl)cyclopro-panecarboxamide] | 9 nM |  | 10 nM
O=C(Nc1ccc(-c2ccc(C(F)(F)F)nc2)c(-c2nnn[nH]2)c1)C1CC1c1ccc(Cl)cc1 (racemic) [Example 79, 2-(4-chlorophenyl)-N-{3-(1H-tetrazol-5-yl)-4-[6-(trifluoro-methyl)pyridin-3-yl]phenyl}cyclopropane-carboxamide] |  | 71 nM | 6460 nM
CCOc1ccc(-c2ccc(NC(=O)C3CC3c3cnn(C)c3)cc2-c2nnn[nH]2)cn1 (racemic) [Example 81, N-[4-(6-ethoxypyridin-3-yl)-3-(1H-tetrazol-5-yl)phenyl]-2-(1-methyl-1H-pyrazol-4-yl)cyclopro-panecarboxamide] |  | 2500 nM | 4070 nM
COCc1ccc(-c2ccc(NC(=O)C3CC3C3CCCCC3)cc2-c2nnn[nH]2)cc1 (racemic) [Example 82, 2-cyclohexyl-N-[4′-(methoxymethyl)-2-(1H-tetrazol-5-yl)biphenyl-4-yl]cyclopropanecarbox-amide] |  |  | 2550 nM
COc1ccc(-c2ccc(NC(=O)C3CC3C3CCCCC3)cc2-c2nnn[nH]2)cc1C (single isomer, unassigned) [Example 35, 2-Cyclohexyl-N-[4′-methoxy-3′-methyl-2-(1H-tetrazol-5-yl)biphenyl-4-yl]cyclopropanecarbox-amide] |  |  | 378 nM
CCOc1ccc(-c2cc(O)c(NC(=O)C3CC3c3ccc(Cl)cc3)cc2-c2nnn[nH]2)cn1 (single isomer, unassigned) [Example 50, 2-(4-chlorophenyl)-N-[4-(6-ethoxypyridin-3-yl)-2-hydroxy-5-(1H-tetrazol-5-yl)phenyl]cyclopropane-carboxamide] |  |  | 24 nM
CC(C)(C)c1cn(-c2ccc(NC(=O)C3CC3c3ccc(Cl)cc3)cc2-c2nnn[nH]2)cn1 (single isomer, unassigned) [Example 84, N-[4-(4-tert-butyl-1H-imidazol-1-yl)-3-(1H-tetrazol-5-yl)phenyl]-2-(4-chlorophenyl)cyclopropanecarboxamide] |  | 4 nM | 
CC[C@@H]1CCN(c2ccc(NC(=O)C3CC3c3ccc(Cl)cc3)cc2-c2nnn[nH]2)C1=O (stereo partly drawn) [Example 75, 2-(4-Chlorophenyl)-N-{4-[(3R)-3-ethyl-2-oxopyrrolidin-1-yl]-3-(1H-tetrazol-5-yl)phenyl}cyclopropane-carboxamide] |  | 458 nM | 

Second part, the compound after the results:

IC50 [1] | IC50 (human B1 receptor; [2]) | IC50 (human B1 receptor; [3]) | Compound
25 nM |  | 5 nM | COc1ccc(-c2ccc(NC(=O)C3CC3C3CCC(C)CC3)cc2-c2nnn[nH]2)cc1OC (racemic) [Example 15, N-[3′,4′-dimethoxy-2-(1H-tetrazol-5-yl)biphenyl-4-yl]-2-(4-methylcyclohexyl)cyclo-propanecarboxamide]
10 nM | 6 nM |  | CCOc1ccc(-c2ccc(NC(=O)C3CC3c3cccc(Cl)c3)cc2-c2nnn[nH]2)cn1 (racemic) [Example 19, 2-(3-Chlorophenyl)-N-[4-(6-ethoxypyridin-3-yl)-3-(1H-tetrazol-5-yl)phenyl]cyclopro-panecarboxamide]
8 nM | 3 nM | 11 nM | CCOc1ccc(-c2cc(O)c(NC(=O)C3CC3c3cccc(C)c3)cc2-c2nnn[nH]2)cn1 (racemic) [Example 51, N-[4-(6-Ethoxypyridin-3-yl)-2-hydroxy-5-(1H-tetrazol-5-yl)phenyl]-2-(3-methylphenyl)cyclopro-panecarboxamide]
22 nM | 19 nM | 10 nM | COc1ccc(-c2cc(F)c(NC(=O)C3CC3c3cccc(C)c3)cc2-c2nnn[nH]2)cc1 (racemic) [Example 55, N-[5-Fluoro-4′-methoxy-2-(1H-tetrazol-5-yl)biphenyl-4-yl]-2-(3-methylphenyl)cyclopro-panecarboxamide]
 | 1310 nM | 12400 nM | Cn1cc(-c2ccc(NC(=O)C3CC3c3ccc(Cl)cc3)cc2-c2nnn[nH]2)cn1 (racemic) [Example 80, 2-(4-chlorophenyl)-N-[4-(1-methyl-1H-pyrazol-4-yl)-3-(1H-tetrazol-5-yl)phenyl]cyclopropane-carboxamide]
 |  | 1580 nM | CCOc1ccc(-c2cc(O)c(NC(=O)C3CC3c3ccc(Cl)cc3)cc2-c2nnn[nH]2)cn1 (single isomer, unassigned) [Example 49, 2-(4-chlorophenyl)-N-[4-(6-ethoxypyridin-3-yl)-2-hydroxy-5-(1H-tetrazol-5-yl)phenyl]cyclopropane-carboxamide]
 | 147 nM |  | CC(C)(C)c1cn(-c2ccc(NC(=O)C3CC3c3ccc(Cl)cc3)cc2-c2nnn[nH]2)cn1 (single isomer, unassigned) [Example 85, N-[4-(4-tert-butyl-1H-imidazol-1-yl)-3-(1H-tetrazol-5-yl)phenyl]-2-(4-chlorophenyl)cyclopropanecarboxamide]
 | 188 nM | 484 nM | O=C(Nc1cc(-c2nnn[nH]2)c(-c2ccc(C(F)(F)F)nc2)cc1O)C1CC1c1ccc(Cl)cc1 (centres unmarked) [Example 83, 2-(4-chlorophenyl)-N-[2-hydroxy-5-(1H-tetrazol-5-yl)-4-[6-(trifluoromethyl)-3-pyridyl]phenyl]cyclo-propanecarboxamide]

From patent publication US20190194148A1, “TETRAZOLE-CONTAINING 1,2-CYCLOPROPANE-CARBOXAMIDES” (Bayer Pharma Aktiengesellschaft, priority 2017, published 2019)
